We go through 14 compounds from US8129371B2, “Thienopyrimidine and pyrazolopyrimidine compounds and their use as mTOR kinase and PI3 kinase inhibitors” (Wyeth LLC, priority 2007, dated 2012).

Where two headings read alike, the source gives them in different places.

The target of test [1] is T1, PI3K (Homo sapiens, UniProt P42336).
T1 construct: PI3 Kinase α IC50; other: PI3 Kinase α; other: PI3 Kinase α isoform, fluorescence polarization
Description: Fluorescence polarization assay for PI3K. The conditions noted are these: read-out: PI3 Kinase α IC50. Type of test: biochemical. The protocol: (§1) This assay is used to determine the IC50 of compounds of the present invention as it identifies inhibitors of PI3 kinase by measuring inhibition.
(§2) The assay is run by placing 5 μL of diluted enzyme per well, then 5 μL of diluted compound (or 9.5 μL enzyme then 0.5 μL compound in DMSO) is added and mixed. Then, 10 μL substrate is added to start the reaction. The samples are incubated 30-60 minutes, then the reaction is stopped by adding 20 μL stop/detector mix. PI3K is diluted with reaction buffer (e.g., 5 μL or 7.5 μL PI3K into 620 μL reaction buffer), and 5 μL of diluted enzyme is used per well. 5 μL reaction buffer or drug diluted in buffer (e.g., 4 μL/100 so final DMSO is 1% in reaction) is added to each. Pipetting up and down mixes the samples. Alternatively, the enzyme can be diluted to 1215 μL. In this case 9.8 μL is added per well and 0.2 μL compound is added in DMSO. To prepare 1 mL of substrate solution, 955 μL reaction buffer, 40 μL PIP2, and 2.5 μL ATP are mixed. 10 μL of substrate is added to each well to start the reaction.
(§3) Stop/detector mix is prepared by mixing 4 μL Red detector and 1.6 μL or 2.0 μL GST-GRP with 1 mL Stop buffer, which results in 10 nM probe and 70 nM GST-GRP). 20 μL of the stop/detector mix is added to each well to stop the reaction. The plates are read after 30-90 minutes keeping the red probe solutions dark. For the zero time point, stop/detector mix is added to the enzyme just before adding substrate. For an extra control, stop/detector mix is added to buffer (no enzyme) and substrate or to just buffer (no substrate). […] Plates are read on machines with filters for Tamra. The units are mP with no enzyme controls reading app 190-220 mP units. Fully active enzyme reduces fluorescence polarization down to 70-100 mP after 30 minutes.

Test [2] concerns the target T2, PI3K (Homo sapiens, UniProt P48736).
T2 construct: PI3 Kinase γ IC50; other: PI3 Kinase γ; other: PI3 Kinase γ isoform, fluorescence polarization
The test can be described thus: Fluorescence polarization assay for PI3K. Type of test: biochemical. The conditions noted are these: read-out: PI3 Kinase γ IC50. The protocol:
as §1, §2, §3
In general terms: Polarisation of emitted light reports the rotation of a fluorescent probe.

For another test, the target named is T3, Human mTOR (FLAG-TOR) (Homo sapiens, UniProt P42345).
T3 construct: FLAG
Description: Human mTOR kinase assay with purified enzyme, DELFIA format. The test is classed as biochemical. As to the method: Enzymes are first diluted in kinase assay buffer (10 mM HEPES (pH 7.4), 50 mM NaCl, 50 mM β-glycerophosphate, 10 mM MnCl2, 0.5 mM DTT, 0.25 mM microcystin LR, and 100 mg/mL BSA). To each well, 12 μL of the diluted enzyme is mixed briefly with 0.5 μL test inhibitor or control vehicle dimethylsulfoxide (DMSO). […] The reaction plate is incubated for 2 hours (linear at 1-6 hours) at room temperature with gentle shaking and then terminated by adding 25 μL Stop buffer (20 mM HEPES (pH 7.4), 20 mM EDTA, 20 mM EGTA). […] The DELFIA Assay buffer and Enhancement solution can be purchased from PerkinElmer. 45 μL of the terminated kinase reaction mixture is transferred to a MaxiSorp plate (Nunc) containing 55 μL PBS. The His6-S6K is allowed to attach for 2 hours after which the wells are aspirated and washed once with PBS. 100 μL of DELFIA Assay buffer with 40 ng/mL Eu—P(T389)-S6K antibody is added. The antibody binding is continued for 1 hour with gentle agitation. The wells are then aspirated and washed 4 times with PBS containing 0.05% Tween-20 (PBST). 100 μL of DELFIA Enhancement solution is added to each well and the plates are read in a PerkinElmer Victor model plate reader. Data obtained is used to calculate enzymatic activity and enzyme inhibition by potential inhibitors.

Another test concerns breast line MDA468. The test can be described thus: In vitro cell culture growth assay (MTS), MDA468. Type of test: cell-based. As to conditions: Homo sapiens, 72 h, MDA468 cells, three days after drug treatment. The protocol: (§4) Human tumor cell lines used include prostate lines LNCap and PC3MM2, breast lines MDA468, MCF7, renal line HTB44 (A498), colon line HCT116, and ovarian line OVCAR3. Cells were plated in 96-well culture plates. One day following plating, the inhibitors were added to cells. Three days after drug treatment, viable cell densities were determined by metabolic conversion (by viable cells) of the dye MTS, a well-established cell proliferation assay. The assays were performed using an assay kit purchased from Promega Corp. (Madison, Wis.) following the protocol supplied with the kit. The MTS assay results were read in a 96-well plate reader by measuring absorbance at 490 nm. The effect of each treatment was calculated as percent of control growth relative to the vehicle-treated cells grown in the same culture plate.

The next test has as its system prostate line LNCap. Description: In vitro cell culture growth assay (MTS), LNCap. Type of test: cell-based. The conditions noted are these: Homo sapiens, LNCaP, 72 h, LNCap cells, three days after drug treatment. As to the method: as §4
Where [3] appears, read: PI3 Kinase α isoform, fluorescence polarization.
Setting [4] is: PI3 Kinase γ isoform, fluorescence polarization.
Where [5] appears, read: purified human mTOR enzyme, DELFIA format.

The IC50 is the midpoint of a concentration-inhibition curve.

T2 sequence (P48736 whole entry, canonical isoform): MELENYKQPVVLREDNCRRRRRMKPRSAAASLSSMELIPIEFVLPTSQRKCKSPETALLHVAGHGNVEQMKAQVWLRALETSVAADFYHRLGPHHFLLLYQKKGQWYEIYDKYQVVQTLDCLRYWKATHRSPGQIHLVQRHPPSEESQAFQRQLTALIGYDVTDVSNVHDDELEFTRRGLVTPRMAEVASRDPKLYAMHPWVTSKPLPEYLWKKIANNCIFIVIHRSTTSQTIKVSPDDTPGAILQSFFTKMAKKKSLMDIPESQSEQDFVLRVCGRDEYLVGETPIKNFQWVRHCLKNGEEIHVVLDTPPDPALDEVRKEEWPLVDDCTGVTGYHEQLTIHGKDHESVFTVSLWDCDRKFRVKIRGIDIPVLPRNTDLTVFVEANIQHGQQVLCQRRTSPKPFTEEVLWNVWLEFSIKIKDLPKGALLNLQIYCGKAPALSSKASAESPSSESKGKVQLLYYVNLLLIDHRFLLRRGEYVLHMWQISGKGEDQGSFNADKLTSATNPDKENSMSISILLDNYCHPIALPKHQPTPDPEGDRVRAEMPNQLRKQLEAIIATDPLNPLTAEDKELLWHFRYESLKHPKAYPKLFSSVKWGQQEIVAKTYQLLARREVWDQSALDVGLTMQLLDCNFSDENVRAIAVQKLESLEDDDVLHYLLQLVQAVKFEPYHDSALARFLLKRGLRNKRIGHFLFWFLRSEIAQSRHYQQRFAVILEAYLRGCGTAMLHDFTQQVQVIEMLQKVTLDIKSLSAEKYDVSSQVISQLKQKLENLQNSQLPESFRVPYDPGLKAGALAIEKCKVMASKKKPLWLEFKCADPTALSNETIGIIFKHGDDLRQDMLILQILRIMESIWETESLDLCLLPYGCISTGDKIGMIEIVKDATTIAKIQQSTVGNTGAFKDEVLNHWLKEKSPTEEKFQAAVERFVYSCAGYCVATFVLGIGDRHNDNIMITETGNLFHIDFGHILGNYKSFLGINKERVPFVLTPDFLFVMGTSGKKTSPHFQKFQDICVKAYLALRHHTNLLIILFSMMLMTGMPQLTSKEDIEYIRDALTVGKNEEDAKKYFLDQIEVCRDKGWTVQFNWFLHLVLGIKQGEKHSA
T1 sequence (P42336 whole entry, canonical isoform): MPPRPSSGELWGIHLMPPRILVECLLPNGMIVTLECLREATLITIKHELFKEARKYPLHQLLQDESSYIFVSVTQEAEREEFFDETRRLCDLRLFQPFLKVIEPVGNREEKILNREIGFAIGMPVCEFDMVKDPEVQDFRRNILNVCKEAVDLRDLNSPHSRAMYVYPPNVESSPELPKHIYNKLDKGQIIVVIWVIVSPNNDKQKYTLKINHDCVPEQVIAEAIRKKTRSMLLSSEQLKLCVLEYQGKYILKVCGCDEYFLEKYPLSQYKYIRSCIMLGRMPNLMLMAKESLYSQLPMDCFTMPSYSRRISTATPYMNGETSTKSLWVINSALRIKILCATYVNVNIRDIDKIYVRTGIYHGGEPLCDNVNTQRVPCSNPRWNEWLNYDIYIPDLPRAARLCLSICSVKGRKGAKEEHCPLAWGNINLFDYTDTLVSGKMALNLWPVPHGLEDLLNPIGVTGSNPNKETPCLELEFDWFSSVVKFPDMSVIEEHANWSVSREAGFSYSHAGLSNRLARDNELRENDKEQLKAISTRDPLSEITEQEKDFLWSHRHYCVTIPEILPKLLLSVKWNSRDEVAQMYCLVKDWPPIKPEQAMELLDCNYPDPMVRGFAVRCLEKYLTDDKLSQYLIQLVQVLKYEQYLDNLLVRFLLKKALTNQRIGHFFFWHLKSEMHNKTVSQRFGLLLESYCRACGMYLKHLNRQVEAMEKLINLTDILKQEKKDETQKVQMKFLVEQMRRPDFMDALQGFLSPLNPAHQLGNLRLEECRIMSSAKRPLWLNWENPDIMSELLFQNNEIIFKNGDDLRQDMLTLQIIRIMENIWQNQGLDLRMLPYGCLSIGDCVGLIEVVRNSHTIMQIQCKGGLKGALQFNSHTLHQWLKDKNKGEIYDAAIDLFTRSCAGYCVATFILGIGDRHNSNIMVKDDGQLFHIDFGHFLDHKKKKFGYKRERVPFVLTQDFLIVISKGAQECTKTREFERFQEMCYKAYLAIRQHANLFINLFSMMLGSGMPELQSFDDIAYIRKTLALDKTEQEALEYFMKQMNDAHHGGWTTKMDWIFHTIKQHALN

Consider `CNC(=O)Nc1ccc(-c2nc(N3CC4CCC(C3)O4)c3cnn([C@H]4CC[C@@H](O)CC4)c3n2)cc1` (relative stereo) [Example 381, 1-{4-[1-(cis-4-hydroxycyclohexyl)-4-(8-oxa-3-azabicyclo[3.2.1]oct-3-yl)-1H-pyrazolo[3,4-d]pyrimidin-6-yl]phenyl}-3-methylurea], for which the IC50 at PI3K [1] (setting [3]) was 227 nM; on PI3K [2] (setting [4]) it was above 10000 nM; against Human mTOR (FLAG-TOR) (setting [5]), 0.3 nM; in the test with breast line MDA468 it was 51 nM; in the test with prostate line LNCap it was 20 nM.
As for `COC(=O)N1CCC(n2ncc3c(N4CC5CCC(C4)O5)nc(-c4ccc(NC(=O)Nc5ccncc5)cc4)nc32)CC1` [Example 14, methyl 4-[4-(8-oxa-3-azabicyclo[3.2.1]oct-3-yl)-6-{4-[(pyridin-4-ylcarbamoyl)amino]phenyl}-1H-pyrazolo[3,4-d]pyrimidin-1-yl]piperidine-1-carboxylate], the concentration for half-maximal inhibition (IC50) was determined as 487 nM on PI3K [1] (PI3 Kinase α); 2050 nM on PI3K [2] (PI3 Kinase γ); 0.16 nM against Human mTOR (FLAG-TOR); 19 nM with breast line MDA468; 0.9 nM in the test on prostate line LNCap.
Consider `Nc1cccc(COC(=O)Nc2ccc(-c3nc(N4CC5CCC(C4)O5)c4cnn(CC(F)(F)F)c4n3)cc2)c1` [Example 254, 3-aminobenzyl {4-[4-(8-oxa-3-azabicyclo[3.2.1]oct-3-yl)-1-(2,2,2-trifluoroethyl)-1H-pyrazolo[3,4-d]pyrimidin-6-yl]phenyl}carbamate], for which the IC50 on PI3K [1] (PI3 Kinase α) is 9650 nM; at PI3K [2] (PI3 Kinase γ) it was 12000 nM; against Human mTOR (FLAG-TOR) it was 1620 nM; in the test with breast line MDA468, 200 nM; in the test on prostate line LNCap, 6200 nM.
Turning to `CN(C)CCOc1ccc(NC(=O)Nc2ccc(-c3nc(N4CC5CCC(C4)O5)c4cnn(CCF)c4n3)cc2)cc1` [Example 243, 1-{4-[2-(dimethylamino)ethoxy]phenyl}-3-{4-[1-(2-fluoroethyl)-4-(8-oxa-3-azabicyclo[3.2.1]oct-3-yl)-1H-pyrazolo[3,4-d]pyrimidin-6-yl]phenyl}urea], the concentration for half-maximal inhibition (IC50) on PI3K [1] (PI3 Kinase α) was 116 nM; on PI3K [2] (PI3 Kinase γ), 1300 nM; at Human mTOR (FLAG-TOR), 0.835 nM; in the test with breast line MDA468, 9 nM; with prostate line LNCap, 4 nM.
For `CCn1ncc2c(N3CC4CCC(C3)O4)nc(-c3ccc(NC(=O)NC)cc3)nc21` [Example 40, 1-{4-[1-ethyl-4-(8-oxa-3-azabicyclo[3.2.1]oct-3-yl)-1H-pyrazolo[3,4-d]pyrimidin-6-yl]phenyl}-3-methylurea], the IC50 at PI3K [1] (PI3 Kinase α) is 270 nM; on PI3K [2] (PI3 Kinase γ), above 10000 nM; against Human mTOR (FLAG-TOR), 0.58 nM; in the test with breast line MDA468, 300 nM; in the test with prostate line LNCap it was 70 nM.
For `CNC(=O)Nc1ccc(-c2nc(N3CC4CCC(C3)O4)c3cnn(CC(F)(F)F)c3n2)cc1` [Example 1, 1-methyl-3-{4-[4-(8-oxa-3-azabicyclo[3.2.1]oct-3-yl)-1-(2,2,2-trifluoroethyl)-1H-pyrazolo[3,4-d]pyrimidin-6-yl]phenyl}urea], in that order: 1620 nM, above 10000 nM, 0.63 nM, 46 nM and 38 nM.
For the compound `COC(=O)N1CCC(n2ncc3c(N4C5CCC4COC5)nc(-c4ccc(NC(=O)Nc5cccnc5)cc4)nc32)CC1` [Example 361, methyl 4-[4-(3-oxa-8-azabicyclo[3.2.1]oct-8-yl)-6-{4-[(pyridin-3-ylcarbamoyl)amino]phenyl}-1H-pyrazolo[3,4-d]pyrimidin-1-yl]piperidine-1-carboxylate], the IC50 on PI3K [1] (setting [3]) came out at 1830 nM; at PI3K [2] (setting [4]), 4070 nM; against Human mTOR (FLAG-TOR) (setting [5]), 0.165 nM; with breast line MDA468, 20 nM; in the test with prostate line LNCap, 2 nM.
As for `CCNC(=O)Nc1ccc(-c2nc(N3CC4CCC(C3)O4)c3sccc3n2)cc1` [Example 407, 1-ethyl-3-{4-[4-(8-oxa-3-azabicyclo[3.2.1]oct-3-yl)thieno[3,2-d]pyrimidin-2-yl]phenyl}urea], the IC50 on PI3K [1] (setting [3]) is 1260 nM; on PI3K [2] (setting [4]), above 10000 nM; against Human mTOR (FLAG-TOR) (setting [5]), 0.76 nM; with breast line MDA468, 250 nM.
For `Oc1ccc(-c2nc(N3CC4CCC(C3)O4)c3sccc3n2)cc1` [Example 418, 4-[4-(8-oxa-3-azabicyclo[3.2.1]oct-3-yl)thieno[3,2-d]pyrimidin-2-yl]phenol], in that order: 6270 nM, above 10000 nM, 34 nM and 17000 nM.
For `Nc1ccc(-c2nc(N3CC4CCC(C3)O4)c3cnn(CC(F)(F)F)c3n2)cc1` [Example 374, 4-[4-(8-oxa-3-azabicyclo[3.2.1]oct-3-yl)-1-(2,2,2-trifluoroethyl)-1H-pyrazolo[3,4-d]pyrimidin-6-yl]aniline], the results for the IC50 on Human mTOR (FLAG-TOR) (setting [5]), in the test with breast line MDA468 and in the test with prostate line LNCap were 57 nM, 5500 nM and 1000 nM, respectively.
As to `O=C(NCCO)Nc1ccc(-c2nc(N3CC4CCC(C3)O4)c3sccc3n2)cc1` [Example 409, 1-(2-hydroxyethyl)-3-{4-[4-(8-oxa-3-azabicyclo[3.2.1]oct-3-yl)thieno[3,2-d]pyrimidin-2-yl]phenyl}urea], the IC50 on PI3K [1] (setting [3]) was 324 nM; on PI3K [2] (setting [4]) it was at least 10000 nM; on Human mTOR (FLAG-TOR) (setting [5]) it was 0.31 nM; with breast line MDA468, 475 nM.
Consider `COC(=O)N1CCC(n2ncc3c(N4CC5CCC(C4)O5)nc(-c4ccc(NC(=O)NC5CC5)cc4)nc32)CC1` [Example 12, methyl 4-[6-{4-[(cyclopropylcarbamoyl)amino]phenyl}-4-(8-oxa-3-azabicyclo[3.2.1]oct-3-yl)-1H-pyrazolo[3,4-d]pyrimidin-1-yl]piperidine-1-carboxylate], for which the concentration for half-maximal inhibition (IC50) is above 10000 nM at PI3K [2] (PI3 Kinase γ), 0.52 nM on Human mTOR (FLAG-TOR), 300 nM with breast line MDA468 and 23 nM with prostate line LNCap.
Turning to `CNC(=O)Nc1ccc(-c2nc(N3C4COCC3C(O)C4)c3cnn(CC(F)(F)F)c3n2)cc1` (stereo not shown) [Example 390, 1-{4-[4-(6-hydroxy-3-oxa-8-azabicyclo[3.2.1]oct-8-yl)-1-(2,2,2-trifluoroethyl)-1H-pyrazolo[3,4-d]pyrimidin-6-yl]phenyl}-3-methylurea], the IC50 on Human mTOR (FLAG-TOR) (setting [5]) amounted to 540 nM; in the test on breast line MDA468, 10000 nM; with prostate line LNCap, 12000 nM.
Regarding `Oc1cccc(-c2nc(N3CC4CCC(C3)O4)c3sccc3n2)c1` [Example 417, 3-[4-(8-oxa-3-azabicyclo[3.2.1]oct-3-yl)thieno[3,2-d]pyrimidin-2-yl]phenol], the IC50 at PI3K [1] (setting [3]) is 399 nM; at PI3K [2] (setting [4]), above 10000 nM; on Human mTOR (FLAG-TOR) (setting [5]), 61 nM; in the test on breast line MDA468, 7800 nM.
